US10307463B2 (priority 2003, dated 2019)

What was measured:
in vivo [1] = conditions: rat
dogs = conditions: dog, in vivo
in vivo [2] = conditions: dog
[3] = tested on: gross behavioral and cardiovascular effects; conditions: rat, in vivo
[4] = tested on: respiratory minute volume responses to CO2; conditions: rat, in vivo
GI transit = conditions: rat, in vivo
rats = conditions: rat, in vivo
[5] = pH 4

CSCC[C@@H]1NC(=O)[C@H](CC(C)C)NC(=O)[C@H](CCCNC(=N)N)NC(=O)[C@H](CO)NC(=O)[C@@H]2CSSC[C@@H]3NC(=O)[C@H](CO)NC(=O)CNC(=O)[C@H]([C@@H](C)O)NC(=O)[C@H](CSSC[C@H](N)C(=O)N[C@@H](CCCCN)C(=O)NCC(=O)N[C@@H](CCCCN)C(=O)NCC(=O)N[C@@H](C)C(=O)N[C@@H](CCCCN)C(=O)N2)NC(=O)[C@H](CSSC[C@@H](C(N)=O)NC(=O)[C@H](CCCCN)NC(=O)CNC(=O)[C@H](CO)NC(=O)[C@H](CCCNC(=N)N)NC3=O)NC(=O)[C@H](CC(=O)O)NC(=O)[C@H](Cc2ccc(O)cc2)NC1=O [ziconotide]
level at 672 h (in vivo [1]): < 4 ng/mL | body weight, food intake or clinical pathology parameters (dogs): no treatment-related changes | granuloma formation at the catheter tip (dogs): no granuloma formation | mean plasma drug level relative to human (dogs): ~10 fold | moribund euthanasia due to CNS effects (tremors, shaking-behavior, ataxia) (dogs): 4/16 | target organ toxicity at termination (dogs): nor was any target organ toxicity identified | level at 672 h (in vivo [2]): < 4 ng/mL | gross behavioral and cardiovascular effects [3]: well tolerated | respiratory depression, subacute administration [4]: did not induce respiratory depression | respiratory minute volume responses to CO2 / acute respiratory depression [4]: did not depress | GI transit (GI transit): does not itself affect GI tract motility | body weight, food intake or clinical pathology parameters (rats): no treatment-related changes | mean plasma drug level relative to human (rats): approximately 3 fold | target organ toxicity at termination (rats): nor was any target organ toxicity identified | stability in solution [5]: stable at 45 °C for weeks
